From paper PMC11162475, “Rule-based omics mining reveals antimicrobial macrocyclic peptides against drug-resistant clinical isolates” (Nature Communications, 2024)
≈ marks a conversion by molar mass, not a printed value.

Experiments:
[1] = test system: Enterococcus faecalis 19-1; assay: microbe, parasite or virus in culture; assay type: cell-based; settings: 19-1, 20 h
Procedure: (§1) For MIC determination, Staphylococcus aureus ATCC25923, Bacillus subtilis 168, Micrococcus luteus DSM1790, Enterococcus faecalis OG1RF, Enterococcus faecium MCC2763, Escherichia coli DH5α and Pseudomonas aeruginosa PAO1 were used as indicator strains. Nisin and vancomycin were used as positive controls. A dilution series of massatide A, massatide B, vancomycin (16, 8, 4, 2, 1, 0.5, 0.25, 0.125, 0.0625, 0.0313 μg/mL) and sistertide A1, kebanetide A1, kebanetide A2, nisin (64, 32, 16, 8, 4, 2, 1, 0.5, 0.25, 0.125 μg/mL) were prepared in 96-well plate from 1–10th column. The indicator strains were added to the compound-containing well. The indicator strain culture with no antibiotics was prepared in the 11th column. The 12th column was filled with 200 μL empty MHB medium. The 96-well plate was incubated at 37 °C for 20 h (30 °C for M. luteus and B. subtilis). The OD600 was detected on MULTISKAN Sky (Thermo Scientific) and MIC values were determined. The MIC values of clinical isolates were determined by Sichuan Primed Shines Bio-tech Co., Ltd. (China) following similar protocol. Levofloxacin was used as a positive control.

[2] = test system: Enterococcus faecalis OG1RF; assay: microbe, parasite or virus in culture; assay type: cell-based; settings: OG1RF, 20 h
Procedure: as §1

[3] = test system: Enterococcus faecium MCC2763; assay: microbe, parasite or virus in culture; assay type: cell-based; settings: MCC2763, 20 h
Procedure: as §1

[4] = test system: Klebsiella pneumoniae ATCC700603; assay: microbe, parasite or virus in culture; assay type: cell-based; settings: ATCC700603, 20 h
Procedure: as §1

[5] = test system: Micrococcus luteus DSM1790; assay: Kirby-Bauer assay, zone of inhibition (agar well); assay type: cell-based; settings: M. luteus DSM1790; 10 μL DMSO stock (3.2 or 1.6 mg/mL) in well of soft LB agar, 30 °C, 20 h
[6] = test system: TEV protease, Endoproteinase AspN, Endoproteinase GluC; settings: many other proteases (TEV protease 37 °C, Endoproteinase AspN and GluC 30 °C), 32 μg/mL, 100:1 (w:w), 4 h, 8 h, 12 h, UPLC-LRMS
Procedure: (§2) Protease stability of massatide A
(§3) We selected TEV protease, Endoproteinase AspN, Endoproteinase GluC, trypsin, and chymotrypsin to evaluate the stability of massatide A. The protease digestion assay was conducted as follows: (i) Stock solution of massatide A (3.2 mg/mL in DMSO) was diluted in H2O with final concentration of 32 μg/mL, (ii) each protease was added with 100:1 (w:w) ratio and incubated under corresponding temperature, i.e., 37 °C for TEV protease, trypsin, and chymotrypsin and 30 °C for Endoproteinase AspN and […]
(§4) Endoproteinase GluC. […]

trypsin = settings: 32 μg/mL in H2O, protease 100:1 (w:w), 37 °C, 4 h, 8 h and 12 h, UPLC-LRMS
Procedure: as §2, §3, §4

MRSA ATCC43300 = assay: Mouse septicaemia model; assay type: in vivo; settings: for number of new dead mouse: infection controlled in mouse; for survival rate of mice: 5 per group
Procedure: Briefly, 6-week-old specific pathogen-free male ICR mice weighing 18–20 g were randomly divided into 4 groups (5 per group). Each mouse received an intraperitoneal injection on the left side of the abdomen with 0.4 ml, 1.8 ×10^10 c.f.u./mL MRSA ATCC43300 suspended in saline containing 5% yeast in each mouse. One hour after infection, the mice were injected intraperitoneally with saline (negative control), massatide A dissolved in saline at 10 mg/kg, 30 mg/kg and 50 mg/kg (experimental groups). […] We injected 0.4 ml solution to each mouse. Animal deaths were recorded for 7 days, and the survival rates were calculated to generate the mouse survival curve.

S. aureus ATCC259923 = assay: UDP-N-acetyl-muramic acid pentapeptide levels (HPLC-HRMS); assay type: cell-based, Staphylococcus aureus; settings: S. aureus treated with or without massatide A, comparative HPLC-HRMS, preliminary unpublished data
From the text: page 26: “Also, there is no discussion about the possible mechanism of antibacterial activity.” We have included a discussion on the proposed mode of action of […] A in the discussion section in lines 388-394 of our manuscript. “Avi(Me)Cys-containing lanthipeptides are reported to target lipid II, an essential precursor in cell wall biosynthesis. […], which shares structural similarities with cacaoidin, may potentially target lipid II or certain membrane proteins involved in peptidoglycan biosynthesis. However, a comprehensive study is necessary to fully uncover the detailed mode of action of […] A, which will be the primary focus of our ongoing research.” In our ongoing study, we have obtained some preliminary unpublished data supporting our hypothesis that […] A may inhibit cell wall biosynthesis. We assessed UDP-N-acetyl-muramic acid pentapeptide levels, an essential precursor in cell wall biosynthesis, in the S. aureus ATCC259923 strain treated with or without […] The mode of action of […] A will be further investigated in our ongoing research. […] 12. p. 16: the data that […] A1 and A2 act synergistically are not convincing - see also main comment above. […] We acknowledge the concern regarding the insufficient evidence supporting the presence of a synergistic effect in our study. As a result, we have opted to remove any conclusions relating to synergy. […]

C/C=C1\NC(=O)C(N(C)C)C(C)SC[C@@H](C(=O)N[C@H](CC)C(=O)N[C@H](C(=O)N[C@@H](C)C(=O)N[C@H](C)C(=O)N[C@@H](Cc2ccccc2)C(=O)N[C@@H](C)C(=O)NC2C(=O)NCC(=O)N[C@@H](Cc3ccc(O)cc3)C(=O)N[C@@H](Cc3ccccc3)C(=O)N[C@H](C)C(=O)N/C=C\SC2C)C(C)C)NC(=O)[C@@H]2CCCN2C(=O)[C@H](C(C)C)NC1=O (stereo partly shown) [Massatide A (1), massatide A]
MIC [1]: 4 µg/mL (≈ 2.45 µM) | MIC [2]: 4 µg/mL (≈ 2.45 µM) | MIC [3]: 2 µg/mL (≈ 1.22 µM) | MIC [4]: >64 µg/mL | inhibitory activity (zone of inhibition) [5]: strong inhibitory activity | protease stability [6]: resistant | protease stability (trypsin): resistant | number of new dead mouse (MRSA ATCC43300; 10mg/kg, time 2.29 day): 1 | number of new dead mouse (MRSA ATCC43300; 10mg/kg, time 3 day): 0 | number of new dead mouse (MRSA ATCC43300; 10mg/kg, time 4 day): 0 | number of new dead mouse (MRSA ATCC43300; 10mg/kg, time 6 day): 0 | number of new dead mouse (MRSA ATCC43300; 10mg/kg, time 7 day): 0 | number of new dead mouse (MRSA ATCC43300; 30mg/kg, time 2.29 day): 1 | number of new dead mouse (MRSA ATCC43300; 30mg/kg, time 3 day): 0 | number of new dead mouse (MRSA ATCC43300; 30mg/kg, time 4 day): 0 | number of new dead mouse (MRSA ATCC43300; 30mg/kg, time 6 day): 0 | number of new dead mouse (MRSA ATCC43300; 30mg/kg, time 7 day): 0 | number of new dead mouse (MRSA ATCC43300; 50mg/kg, time 2.29 day): 0 | number of new dead mouse (MRSA ATCC43300; 50mg/kg, time 3 day): 0 | number of new dead mouse (MRSA ATCC43300; 50mg/kg, time 4 day): 0 | number of new dead mouse (MRSA ATCC43300; 50mg/kg, time 6 day): 0 | number of new dead mouse (MRSA ATCC43300; 50mg/kg, time 7 day): 0 | survival rate of mice (MRSA ATCC43300; single dose 10 mg/kg i.p. 1 h after i.p. infection with 7.2 × 10^9 c.f.u. MRSA ATCC43300, 7 days): 80% | survival rate of mice (MRSA ATCC43300; single dose 50 mg/kg i.p. 1 h after i.p. infection with 7.2 × 10^9 c.f.u. MRSA ATCC43300, 7 days): 100% | UDP-N-acetyl-muramic acid pentapeptide levels (S. aureus ATCC259923): increased levels
